Experimental data taken from US20110178104A1, “Anti-Heparin Compounds” (POLYMEDIX INC., priority 2010, published 2011).
Converted amounts (≈) assume the structure as drawn. “And” between values parts separate entries of the source, which are not always exact repeats. Equal entries are not always repeated.

Assays:
UFH = assay: FXa amidolytic assay (Example 10), UFH; details: read-out: Heparin FXa uM EC50; UFH 0.03 units/mL; human antithrombin, bovine Factor Xa
Method: (§3) Two μl of test agent are added (range between 0.01 and 23 ug/ml) and incubated for 5 minutes at 23° C. Bovine Factor Xa was added to a final concentration of 0.636 nkat/mL and incubated for a further 10 minutes at 23° C.

Unfractionated heparin = assay: aPTT clotting assay, UFH 0.4 U/mL in plasma (Example 10); assay type: biochemical; details: unfractionated heparin 0.4 U/mL in plasma; aPTT clotting
Method: aPTT clotting Assay: Unfractionated heparin was mixed with plasma at a final concentration of 0.4 U/mL (or concentration which increases aPTT time to between 120 and 300 seconds). […] The ACL Elite Hemostasis analyzer (Beckman Coulter™) was used to add aPTT reagent (HemosIL SynthASil) to supplemented plasma. Clotting was initiated by addition of CaCl2 and time to clot was recorded.

fondaparinux [1] = assay: FXa amidolytic assay (Example 10), fondaparinux; details: for EC50: read-out: Fondap FXa EC50, fondaparinux 0.02 μg/mL, human antithrombin, bovine Factor Xa
Method: as §3

tinzaparin = assay: FXa amidolytic assay (Example 10), tinzaparin; details: read-out: Tinzap FXa EC50; tinzaparin 0.1 ug/ml; human antithrombin, bovine Factor Xa
Method: as §3

in vitro = assay type: cell-based, human; details: human, pH 7.4
Summary of the method: (§1)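 Pooled human red cells, washed and diluted from a 0.22% stock suspension in TBS pH 7.4, were shaken with two-fold dilutions (1000 to 0.48 µg/ml) for 1 h at 37 °C. Released hemoglobin in the supernatant was read at OD405. EC50 came from a four-parameter logistic fit, with melittin as positive control.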

[2] = test system: isolated human erythrocytes; assay: cells; assay type: cell-based; details: Homo sapiens, Erythrocyte, 1 h, human RBC, 1 hour at 37° C.; read-out: Hemolysis EC50
Summary of the method: as §1

enoxaparin = assay: FXa amidolytic assay (Example 10), enoxaparin; details: read-out: Enox FXa EC50; enoxaparin 0.1 ug/ml; human antithrombin, bovine Factor Xa
Method: as §3

[3] = Cytotoxicity colorimetric assay, HepG2; assay type: cell-based, human; details: human, HepG2 cells, one hour in serum-free media
Summary of the method: (§2)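 HepG2 cells (3×10^4/well, MEM + 10% FBS) and NIH/3T3 cells (2×10^4/well, DMEM + 10% BCS) were exposed to compound for 1 h in serum-free medium. Viability read by tetrazolium-to-formazan bioreduction after return to serum medium; EC50 from a four-parameter logistic fit.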

fondaparinux [4] = assay: In vivo neutralization of fondaparinux in the rat
Method: Compounds were selected to test fondaparinux neutralization in vivo. Rats were pre-treated with fondaparinux administered by IV injection at 0.5 mg/kg. The rats were then treated with a single IV injection of saline, protamine or the PMX compound. Blood was collected via the orbital sinus from three rats per group at the following time points: pre-dose, 1, 3, 10, 30 and 60 min. Plasma samples were prepared for analysis of anti-factor Xa activity using an AMEX Destiny Plus Coagulation Analyzer.

[5] = Cytotoxicity colorimetric assay, NIH/3T3; assay type: cell-based, mouse; details: mouse, NIH/3T3 cells, one hour in serum-free media
Summary of the method: as §2

Row | Compound | EC50 (UFH) [µM] | EC50 (Unfractionated heparin) | EC50 (fondaparinux [1]) | EC50 (tinzaparin) | hemolysis at 1 h (in vitro) [%] | EC50 [2] [µg/mL] | EC50 (enoxaparin) | Potent LMWH-antagonists with superior anti-fondaparinux activity (summary) (fondaparinux [1]) | EC50 at 1 h [3] [µg/mL] | reduction of Factor Xa (anti-factor Xa) levels after fondaparinux (fondaparinux [4]; fondaparinux 0.5 mg/kg IV, test agent 2 and 5 mg/kg IV) | in vivo efficacy versus fondaparinux (summary) (fondaparinux [4]; in vivo) | EC50 at 1 h [5] [µg/mL]
1 | COc1ccc(NC(=O)[C@H](CCCNC(=N)N)NC(=O)c2cc(NC(=O)[C@H](CCCNC(=N)N)NC(=O)c3cc(NC(=O)[C@H](CCCNC(=N)N)NC(=O)c4cc(NC(C)=O)ccc4OC)ccc3OCC(=O)O)ccc2OC)cc1C(=O)N[C@@H](Cc1c[nH]c2ccccc12)C(N)=O [Compound 314] | 0.295 | > 10000 nM | 265 nM | 199 nM | 25 | 1000 (≈ 738 µM) | 208 nM | – | – | – | – | –
2 | COc1ccc(NC(=O)[C@@H](CCCNC(=N)N)NC(=O)c2cc(NC(=O)[C@@H](CCCNC(=N)N)NC(=O)c3cc(NC(=O)[C@@H](CCCNC(=N)N)NC(=O)c4cc(NC(=O)[C@H](N)CCC(=O)O)ccc4OC)ccc3OC)ccc2OC)cc1C(N)=O [Compound 322] | – | 2110 nM | 417 nM | 158 nM | 50 | 1000 (≈ 826 µM) | 195 nM | – | – | – | – | –
3 | COc1ccc(NC(=O)[C@@H](CCCNC(=N)N)NC(=O)c2cc(NC(=O)[C@@H](CCCNC(=N)N)NC(=O)c3cc(NC(=O)[C@@H](CCCNC(=N)N)NC(=O)c4cc(NC(=O)[C@H](N)Cc5c[nH]c6ccccc56)ccc4OC)ccc3OC)ccc2OCC(=O)O)cc1C(N)=O [Compound 329] | – | 7910 nM | 371 nM | 203 nM | 50 | 18 (≈ 13.7 µM) | 202 nM | – | – | – | – | –
4 | COc1ccc(NC(=O)[C@H](CCCCN)NC(=O)c2cc(NC(=O)[C@H](CCCCN)NC(=O)c3cc(NC(=O)[C@H](CCCCN)NC(=O)c4cc(NC(=O)[C@@H](N)Cc5c[nH]c6ccccc56)ccc4OC)ccc3OC)ccc2OC)cc1C(=O)N[C@@H](Cc1c[nH]c2ccccc12)C(=O)O [Compound 330] | – | > 10000 nM | 218 nM | 182 nM | 75 | 5.4 (≈ 3.94 µM) | 169 nM | – | – | – | – | –
5 | COc1ccc(NC(=O)[C@@H](CCCNC(=N)N)NC(=O)c2cc(NC(=O)[C@@H](CCCNC(=N)N)NC(=O)c3cc(NC(=O)[C@@H](CCCNC(=N)N)NC(=O)c4cc(NC(=O)[C@H](N)Cc5c[nH]c6ccccc56)ccc4OC)ccc3OC)ccc2OC)cc1C(=O)N[C@H](Cc1c[nH]c2ccccc12)C(=O)O [Compound 331] | – | > 10000 nM | 161 nM | 184 nM | 50 | ~100 (≈ 68.7 µM) | 155 nM | – | – | – | – | –
6 | COc1cc(OC)c(C(=O)N[C@H]2CC[C@H](NC(=O)c3ccc(OCCCCCNC(=N)N)cc3OCCCCCNC(=N)N)CC2)cc1C(=O)N[C@H]1CC[C@H](NC(=O)c2ccc(OCCCCCNC(=N)N)cc2OCCCCCNC(=N)N)CC1 [Compound 336] | – | 1430 nM and 1220 nM | 91 nM and 63 nM | 133 nM and 84 nM | – | > 1000 | 79 nM and 91 nM | superior anti-fondaparinux activity | 505 (≈ 421 µM) | significant reductions in anti-Factor Xa activity | in vivo efficacy versus fondaparinux | 390 (≈ 325 µM)
